Key:
[1] = system: Green Peach Aphid (Myzus persicae) (GPA) (MYZUPE); experiment: Bioassay for Green Peach Aphid (GPA), foliar spray on cabbage seedlings; type: in vivo; details: Myzus persicae, 72 h, 200 ppm foliar spray, graded after three days, Abbott corrected % control, read-out: % Control (or Mortality) rating, GPA
Method: Cabbage seedlings grown in 3-inch pots, with 2-3 small (3-5 cm) true leaves, were used as test substrate. The seedlings were infested with 20-50 GPA (wingless adult and nymph stages) one day prior to chemical application. Four pots with individual seedlings were used for each treatment. Test compounds (2 mg) were dissolved in 2 mL of acetone/methanol (1:1) solvent, forming stock solutions of 1000 ppm test compound. The stock solutions were diluted 5× with 0.025% Tween 20 in H2O to obtain the solution at 200 ppm test compound. A hand-held aspirator-type sprayer was used for spraying a solution to both sides of […] leaves until runoff. Reference plants (solvent check) were sprayed with the diluent only containing 20% by volume of acetone/methanol (1:1) solvent. Treated plants were held in a holding room for three days at approximately 25° C. and ambient relative humidity (RH) prior to grading. Evaluation was conducted by counting the number of live aphids per plant under a microscope. Percent control was measured by using Abbott's correction formula (W. S. Abbott, “A Method of Computing the Effectiveness of an Insecticide” J. Econ. Entomol. 18 (1925), pp. 265-267) as follows. Corrected % Control=100*(X−Y)/X
X=No. of live aphids on solvent check plants and
Y=No. of live aphids on treated plants
Biological Data for Green Peach Aphid (GPA) (MYZUPE) and Sweetpotato Whitefly-crawler (WF) (BEMITA)” (See Table Section).

[2] = system: Sweetpotato Whitefly-Crawler (Bemisia tabaci) (WF) (BEMITA); experiment: Insecticidal test for Sweetpotato Whitefly-crawler (WF) in foliar spray assay on cotton plants; type: in vivo; details: Bemisia tabaci, 216 h, 200 ppm foliar spray, graded after 9 days, Abbott corrected % control, read-out: % Control (or Mortality) rating, WF
Method: Cotton plants (Gossypium hirsutum) grown in 3-inch pots, with 1 small (4-5 cm) true leaves, were used as test substrate. The plants were infested with 200-400 whitefly eggs 4-5 days prior to chemical application. Four pots with individual plants were used for each treatment. Test compounds (2 mg) were dissolved in 1 mL of acetone solvent, forming stock solutions of 2000 ppm test compound. The stock solutions were diluted 10× with 0.025% Tween 20 in H2O (diluents) to obtain the solution at 200 ppm test compound. A hand-held aspirator-type sprayer was used for spraying a solution to both sides of cotton leaves until runoff. Reference plants (solvent check) were sprayed with the diluent only containing 10% by volume of acetone solvent. Treated plants were held in a holding room for 9 days at approximately 25° C. and ambient relative humidity (RH) prior to grading. Evaluation was conducted by counting the number of live 3-4 nymph stage per plant under a microscope. Percent control was measured by using Abbott's correction formula (W. S. Abbott, “A Method of Computing the Effectiveness of an Insecticide” J. Econ. Entomol. 18 (1925), pp. 265-26′7) as follows. Corrected % Control=100*(X−Y)/X
X=No. of live nymphs on solvent check plants and
Y=No. of live nymphs on treated plants. […]

Structure (SMILES)	melting point [°C]	mortality at 200 ppm [1] [%]	mortality at 200 ppm [2] [%]
C#CCN(C(=O)OC(C)(C)C)c1sc(Br)nc1C [CA4, tert-Butyl (2-bromo-4-methylthiazol-5-yl)(prop-2-yn-1-yl)carbamate]	82 to 86	–	–
C#CCN(C(=O)OC(C)(C)C)c1sc(-c2cncnc2)nc1Cl [CA10, tert-Butyl (4-chloro-2-(pyrimidin-5-yl)thiazol-5-yl)(prop-2-yn-1-yl) carbamate]	80 to 83	–	–
C#CCN(C(=O)CCSCCC(F)(F)F)c1sc(-c2cncc(F)c2)nc1C [Compound P19, N-(2-(5-Fluoropyridin-3-yl)-4-methylthiazol-5-yl)-N-(prop-2-yn-1-yl)-3-((3,3,3-trifluoropropyl)thio)propanamide]	–	80 to 100	80 to 100
C#CCN(C(=O)CCSCC1CC1(F)F)c1sc(-c2cncc(F)c2)nc1C (centres unmarked) [Compound P22, 3-(((2,2-Difluorocyclopropyl)methyl)thio)-N-(2-(5-fluoropyridin-3-yl)-4-methylthiazol-5-yl)-N-(prop-2-yn-1-yl)propanamide]	–	80 to 100	80 to 100
C#CC(C)N(C(=O)CCSCC1CC1(F)F)c1sc(-c2cccnc2)nc1C (centres unmarked) [Compound P31, N-(But-3-yn-2-yl)-3-(((2,2-difluorocyclopropyl)methyl)thio)-N-(4-methyl-2-(pyridin-3-yl)thiazol-5-yl)propanamide]	–	80 to 100	80 to 100
C#CC(C)N(C(=O)CCSCCC(F)(F)F)c1sc(-c2cccnc2)nc1C (centres unmarked) [Compound P32, N-(But-3-yn-2-yl)-N-(4-methyl-2-(pyridin-3-yl)thiazol-5-yl)-3-((3,3,3-trifluoropropyl)thio) propanamide]	–	80 to 100	80 to 100
C#CCN(C(=O)CCSCCC(F)(F)F)c1sc(-c2cccnc2)nc1Cl [FA1, N-(4-Chloro-2-(pyridin-3-yl)thiazol-5-yl)-N-(prop-2-yn-1-yl)-3-((3,3,3-trifluoropropyl)thio) propanamide]	–	80 to 100	80 to 100
C#CCN(C(=O)CCSCCC(F)(F)F)c1sc(-c2cncc(F)c2)nc1Cl [FA2, N-(4-Chloro-2-(5-fluoropyridin-3-yl)thiazol-5-yl)-N-(prop-2-yn-1-yl)-3-((3,3,3-trifluoropropyl)thio)propanamide]	–	80 to 100	80 to 100
C#CCN(C(=O)CCSCCC(F)(F)F)c1sc(-c2cncnc2)nc1Cl [FA3, N-(4-chloro-2-(pyrimidin-5-yl)thiazol-5-yl)-N-(prop-2-yn-1-yl)-3-((3,3,3-trifluoropropyl)thio)propanamide]	–	80 to 100	80 to 100
C#CCN(C(=O)CCSC)c1sc(-c2cncc(F)c2)nc1C [FA4, N-(2-(5-Fluoropyridin-3-yl)-4-methylthiazol-5-yl)-3-(methylthio)-N-(prop-2-yn-1-yl)propanamide]	–	80 to 100	80 to 100
C#CCN(C(=O)C(C)CSC)c1sc(-c2cncc(F)c2)nc1C (centres unmarked) [FA5, N-(2-(5-Fluoropyridin-3-yl)-4-methylthiazol-5-yl)-2-methyl-3-(methylthio)-N-(prop-2-yn-1-yl) propanamide]	–	80 to 100	80 to 100
C#CCN(C(=O)CC[S+]([O-])CCC(F)(F)F)c1sc(-c2cccnc2)nc1Cl (centres unmarked) [FA6, N-(4-chloro-2-(pyridin-3-yl)thiazol-5-yl)-N-(prop-2-yn-1-yl)-3-((3,3,3trifluoropropyl)sulfinyl)propanamide]	–	80 to 100	80 to 100
C#CCN(C(=O)CC[S+]([O-])CCC(F)(F)F)c1sc(-c2cncc(F)c2)nc1Cl (centres unmarked) [FA7, N-(4-Chloro-2-(5-fluoropyridin-3-yl)thiazol-5-yl)-N-(prop-2-yn-1-yl)-3-((3,3,3-trifluoropropyl)sulfinyl)propanamide]	–	80 to 100	80 to 100
C#CCN(C(=O)CC[S+]([O-])CCC(F)(F)F)c1sc(-c2cncnc2)nc1Cl (centres unmarked) [FA8, N-(4-Chloro-2-(pyrimidin-5-yl)thiazol-5-yl)-N-(prop-2-yn-1-yl)-3-((3,3,3-trifluoropropyl)sulfinyl)propanamide]	–	80 to 100	80 to 100
C#CCN(C(=O)CC[S+]([O-])CC1CC1(F)F)c1sc(-c2cccnc2)nc1C (centres unmarked) [FA9, 3-(((2,2-Difluorocyclopropyl)methyl)sulfinyl)-N-(4-methyl-2-(pyridin-3-yl)thiazol-5-yl)-N-(prop-2-yn-1-yl)propanamide]	–	80 to 100	80 to 100
C#CCN(C(=O)CCS(=O)(=O)CCC(F)(F)F)c1sc(-c2cccnc2)nc1Cl [FA10, N-(4-chloro-2-(pyridin-3-yl)thiazol-5-yl)-N-(prop-2-yn-1-yl)-3-((3,3,3-trifluoropropyl)sulfonyl)propanamide]	–	80 to 100	80 to 100
C#CCN(C(=O)CCS(=O)(=O)CCC(F)(F)F)c1sc(-c2cncc(F)c2)nc1Cl [FA11, N-(4-Chloro-2-(5-fluoropyridin-3-yl)thiazol-5-yl)-N-(prop-2-yn-1-yl)-3-((3,3,3-trifluoropropyl)sulfonyl)propanamide]	–	80 to 100	80 to 100
C#CCN(C(=O)CCS(=O)(=O)CCC(F)(F)F)c1sc(-c2cncnc2)nc1Cl [FA12, N-(4-Chloro-2-(pyrimidin-5-yl)thiazol-5-yl)-N-(prop-2-yn-1-yl)-3-((3,3,3-trifluoropropyl)sulfonyl) propanamide]	–	80 to 100	80 to 100
C#CCN(C(=O)CCS(=O)(=O)CC1CC1(F)F)c1sc(-c2cccnc2)nc1C (centres unmarked) [FA13, 3-(((2,2-Difluorocyclopropyl)methyl)sulfonyl)-N-(4-methyl-2-(pyridin-3-yl)thiazol-5-yl)-N-(prop-2-yn-1-yl)propanamide]	–	80 to 100	80 to 100
CC#CCN(C(=O)CCSCC1CC1(F)F)c1sc(-c2cccnc2)nc1C (centres unmarked) [FA14, N-(But-2-yn-1-yl)-3-(((2,2-difluorocyclopropyl)methyl)thio)-N-(4-methyl-2-(pyridin-3-yl)thiazol-5-yl)propanamide]	–	80 to 100	80 to 100
